The results in this text go back to the supplement of paper PMC11061612.

Assay [1] deals with EMC-BAC-2 (Non-Small Cell Lung Carcinoma). Put plainly: Bliss excess, mean over the matrix (fraction); higher = more synergy. Put shortly:
(§1)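 Cell lines grown in DMEM/F12 or RPMI with 10% FBS were plated in 1536-well plates and held 24 hours at 37°C, 5% CO2 before 72 hours of exposure to two-drug dose matrices, with DMSO typically at 0.2%. CellTiter-Glo 2.0 luminescence gave viability, which was converted to inhibition. Vehicle wells were set to 0 and blank wells to 1. Combination Emax is the second-highest inhibition in the matrix, and Bliss excess is the observed combination effect minus the expected EA + EB − EA·EB, where EA and EB are the single-agent effects.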

Assay [2] has as its system EW-3 (Ewing's Sarcoma). The assay is described as above. Put shortly:
as §1

Assay [3] concerns GI-1 (Glioblastoma). Described as above. In a few lines: as §1
Assay [4] concerns GOTO (Neuroblastoma). Described as above. In a few lines:
as §1

Assay [5] deals with IMR-5 (Neuroblastoma). The description is as above. In a few lines:
as §1

Assay [6] concerns JHH-7 (Hepatocellular Carcinoma). Described as above. Put shortly: as §1
In assay [7] the test system is KYSE-50 (Esophageal Squamous Cell Carcinoma). The assay is described as above. Put shortly:
as §1

The test system of assay [8] is MFE-319 (Endometrial Carcinoma). The description is as above. Put shortly:
as §1

In assay [9] the test system is NB7 (Neuroblastoma). The description is as above. In a few lines: as §1
In assay [10] the test system is NCI-H1573 (Lung Adenocarcinoma). The assay is described as above. Put shortly: as §1
The test system of assay [11] is NCI-H2405 (Lung Adenocarcinoma). Described as above. In a few lines:
as §1

Assay [12] relates to NCI-H322M (Lung Adenocarcinoma). The assay is described as above. Put shortly: as §1
The subject of assay [13] is OCUB-M (Breast Carcinoma). The assay is described as above. In a few lines: as §1
The test system of assay [14] is OVISE (Ovarian Carcinoma). The assay is described as above. Put shortly:
as §1

The test system of assay [15] is PF-382 (T-Lymphoblastic Leukemia). The description is as above. Put shortly:
as §1

The test system of assay [16] is SCC-9 (Oral Cavity Carcinoma). The description is as above. Put shortly: as §1
Assay [17] has as its system SNU-C1 (Colorectal Carcinoma). The assay is described as above. Put shortly: as §1
Assay [18] deals with VMRC-LCD (Lung Adenocarcinoma). The description is as above. Put shortly: as §1
The test system of assay [19] is KINGS-1 (Low Grade Glioma). Put plainly: combination Emax (second highest fraction inhibited in the dose matrix, 72 h); higher = more inhibition; extreme values may be limits of the assay. In a few lines:
as §1

Assay [20] concerns OCUM-1 (Gastric Carcinoma). The description is as above. Put shortly: as §1
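Throughout, for Bliss excess, mean over the matrix: after 72 h of two-drug dosing.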

`CCc1c2c(nc3ccc(O)cc13)-c1cc3c(c(=O)n1C2)COC(=O)[C@]3(O)CC` [SN-38] + O=C(c1cc(Cc2n[nH]c(=O)c3ccccc23)ccc1F)N1CCN(C(=O)C2CC2)CC1 [Olaparib] (first compound max 0.3 µM, 7x7, partner max 10 µM): the Bliss excess is 0.0721 in [1]; -0.0057 in assay [2]; 0.0652 in [3]; -0.0014 in [4]; 0.0721 in assay [5]; 0.0299 in [6]. For the same compound, the Bliss excess is 0.0126 in [7]; 0.0328 in assay [8]; 0.0625 in assay [9]; -0.0085 in [10]; 0.0105 in assay [11]; 0.0495 in assay [12]. Moreover, the Bliss excess is 0.15 in [13]; 0.0082 in [14]; 0.0471 in assay [15]; 0.0207 in assay [16]; -0.0419 in assay [17]; -0.0163 in assay [18]. For the same compound, the “combination Emax” value in assay [19] was found to be 0.287; in [20], 0.645.
